Columns and labels:
[1] = singlet oxygen efficiency test, reference rose bengal; assay type: physicochemical
[2] = absorption spectrum (maximum absorption wavelength, molar extinction coefficient); assay type: physicochemical

| Structure (SMILES) | singlet oxygen yield [1] [%] | maximum absorption wavelength [2] [nm] | molar extinction coefficient [2] |
| --- | --- | --- | --- |
| COc1c2c3c4c(c(NC(CS)C(=O)O)c(=O)c5c(O)cc(OC)c(c6c(OC)cc(NC(CS)C(=O)O)c(c1=O)c63)c54)C=C(C)C2C(C)=O (stereo not drawn) [HB-25d] | 18 | 630 | 20,500 M^−1cm^−1 |
| COCCOCCOCCOCCOCCOCCOC(=O)C1CCC(Nc2c(O)c3c(=O)cc(OC)c4c5c(OC)cc(=O)c6c(NC7CCC(C(=O)OCCOCCOCCOCCOCCOCCOC)CC7)c(OC)c7c(c(c2C=C(C)C7C(C)=O)c34)c65)CC1 (stereo not drawn) [HB-14b-PEG6] | 34 | 624 | 30,500 M^−1cm^−1 |
| COc1c(O)c2c(=O)cc(OC)c3c4c(OC)cc(=O)c5c(NO)c(NO)c6c(c(c1CC(C)=C6)c23)c54 [HC-37a] | 32 | 620 | 30,500 M^−1cm^−1 |
| COc1c2c3c4c(c(NCC5CCC(C(=O)NCCCCCCS(=O)(=O)O)CC5)c(=O)c5c(NCC6CCC(C(=O)NCCCCCCS(=O)(=O)O)CC6)cc(OC)c(c6c(OC)cc(O)c(c1=O)c63)c54)C=C(C)C2 (stereo not drawn) [HC-13c-C6-SO3H] | 36 | 630 | 33,000 M^−1cm^−1 |
| COc1c2c3c4c(c(NCC5CCC(C(=O)OCCCCCC[P+](c6ccccc6)(c6ccccc6)c6ccccc6)CC5)c(=O)c5c(NCC6CCC(C(=O)OCCCCCC[P+](c7ccccc7)(c7ccccc7)c7ccccc7)CC6)cc(OC)c(c6c(OC)cc(O)c(c1=O)c63)c54)C=C(C)C2 (stereo not drawn) [HC-30c-C6-PPh3^+] | 40 | 632 | 33,500 M^−1cm^−1 |
| COCCOCCOCCOCCOCCOCCOCCOCCOCCNC(=O)C1CCC(CNc2c3c4c5c(c(OC)c(=O)c6c(NCC7CCC(C(=O)NCCOCCOCCOCCOCCOCCOCCOCCOCCOC)CC7)cc(OC)c(c7c(OC)cc(O)c(c2=O)c74)c65)CC(C)=C3)CC1 (stereo not drawn) [HC-13d-NH-PEG8] | 30 | 625 | 32,500 M^−1cm^−1 |
| COCCOC(=O)CCCCCNc1c(NCCCCCC(=O)OCCOC)c2c(=O)cc(OC)c3c4c(OC)cc(=O)c5c(O)c(OC)c6c(c(c1C=C(C)C6)c23)c54 [HC-9a-PEG1] | 32 | 621 | 30,000 M^−1cm^−1 |
| COCCOCCOCCOCCOCCOCCOC(=O)C1CCCCC1Nc1c2c3c4c(c(OC)c(=O)c5c(NC6CCCCC6C(=O)OCCOCCOCCOCCOCCOCCOC)cc(OC)c(c6c(OC)cc(O)c(c1=O)c63)c54)C(C(C)=O)C(C)=C2 (stereo not drawn) [HB-16d-PEG6] | 33 | 628 | 32,000 M^−1cm^−1 |
| COc1c2c3c4c(c(NCC5CCC(C(=O)NCCCCCC[P+](c6ccccc6)(c6ccccc6)c6ccccc6)CC5)c(=O)c5c(NCC6CCC(C(=O)NCCCCCC[P+](c7ccccc7)(c7ccccc7)c7ccccc7)CC6)cc(OC)c(c6c(OC)cc(O)c(c1=O)c63)c54)C=C(C)C2 (stereo not drawn) [HC-13c-NH—C6-PPh3+] | 38 | 632 | 33,500 M^−1cm^−1 |
| CCCCCCNc1c2c3c4c(c(OC)c(=O)c5c(O)cc(OC)c(c6c(OC)cc(NCCCCCC)c(c1=O)c63)c54)CC(C)=C2 [HC-34c] | 38 | 624 | 32,500 M^−1cm^−1 |
| COc1c2c3c4c(c(NCCCCCC(=O)O)c(=O)c5c(O)cc(OC)c(c6c(OC)cc(NCCCCCC(=O)O)c(c1=O)c63)c54)C=C(C)C2 [HC-9d] | 26 | 624 | 25,000 M^−1cm^−1 |
| COc1c2c3c4c(c(NCCCC(=O)NCCCCS(=O)(=O)O)c(=O)c5c(O)cc(OC)c(c6c(OC)cc(NCCCC(=O)NCCCCS(=O)(=O)O)c(c1=O)c63)c54)C=C(C)C2 [HC-8d-NH—C4-SO3H] | 32 | 626 | 30,500 M^−1cm^−1 |
| COc1c(O)c2c(=O)cc(OC)c3c4c(OC)cc(=O)c5c(NCC[N+]67CC[N+](C)(CC6)CC7)c(NCC[N+]67CC[N+](C)(CC6)CC7)c6c(c(c1C(C(C)=O)C(C)=C6)c23)c54 (stereo not drawn) [HB-41a] | 31 | 622 | 32,500 M^−1cm^−1 |
| COc1c2c3c4c(c(NC(CC(N)=O)C(=O)O)c(=O)c5c(NC(CC(N)=O)C(=O)O)cc(OC)c(c6c(OC)cc(O)c(c1=O)c63)c54)C=C(C)C2C(C)=O (stereo not drawn) [HB-26c] | 21 | 614 | 21,500 M^−1cm^−1 |
| COc1c2c3c4c(c(NCCCC(=O)NCCCCCC[N+](C)(C)C)c(=O)c5c(NCCCC(=O)NCCCCCC[N+](C)(C)C)cc(OC)c(c6c(OC)cc(O)c(c1=O)c63)c54)C=C(C)C2 [HC-8c-NH—C6-N^+] | 36 | 634 | 32,000 M^−1cm^−1 |
| COc1c(NCCOCCO)c2c(=O)cc(OC)c3c4c(OC)cc(=O)c5c(O)c(NCCOCCO)c6c(c(c1C(C(C)=O)C(C)=C6)c23)c54 (stereo not drawn) [HB-1b] | 36 | 622 | 28,000 M^−1cm^−1 |

| Structure (SMILES) | singlet oxygen yield [1] [%] | maximum absorption wavelength [2] [nm] | molar extinction coefficient [2] |
| --- | --- | --- | --- |
| COCCOCCOCCOCCOCCOCCOC(=O)C1CCC(Nc2c3c4c5c(c(OC)c(=O)c6c(NC7CCC(C(=O)OCCOCCOCCOCCOCCOCCOC)CC7)cc(OC)c(c7c(OC)cc(O)c(c2=O)c74)c65)C(C(C)=O)C(C)=C3)CC1 (stereo not drawn) [HB-14d-PEG6] | 32 | 630 | 31,500 M^−1cm^−1 |
| COc1c(O)c2c(=O)cc(OC)c3c4c(OC)cc(=O)c5c(NCCC(=O)NCCN6CCOCC6)c(NCCC(=O)NCCN6CCOCC6)c6c(c(c1C(C(C)=O)C(C)=C6)c23)c54 (stereo not drawn) [HB-42a] | 33 | 620 | 32,500 M^−1cm^−1 |
| COc1c2c3c4c(c(NCCCS(=O)(=O)O)c(=O)c5c(NCS(=O)(=O)O)cc(OC)c(c6c(OC)cc(O)c(c1=O)c63)c54)C=C(C)C2 [HC-45c] | 21 | 627 | 22,000 M^−1cm^−1 |
| CCCNc1c(NCCC)c2c(=O)cc(OC)c3c4c(OC)cc(=O)c5c(O)c(OC)c6c(c(c1C=C(C)C6C(C)=O)c23)c54 (stereo not drawn) [HB-33a] | 30 | 618 | 32,500 M^−1cm^−1 |
| COCCOCCOCCOCCOCCOCCOCCC(=O)OCCOCCNc1c(O)c2c(=O)cc(OC)c3c4c(OC)cc(=O)c5c(NCCOCCOC(=O)CCOCCOCCOCCOCCOCCOCCOC)c(OC)c6c(c(c1C=C(C)C6C(C)=O)c23)c54 (stereo not drawn) [HB-1b-PEG6] | 32 | 622 | 30,000 M^−1cm^−1 |
| COc1c(O)c2c(=O)cc(OC)c3c4c(OC)cc(=O)c5c(NCCS(=O)(=O)OC)c(NCCS(=O)(=O)OC)c6c(c(c1C(C(C)=O)C(C)=C6)c23)c54 (stereo not drawn) [HB-12a] | 20 | 621 | 23,500 M^−1cm^−1 |
| COc1c2c3c4c(c(NC5CCC(C(=O)O)C5)c(=O)c5c(O)cc(OC)c(c6c(OC)cc(NC7CCC(C(=O)O)C7)c(c1=O)c63)c54)C=C(C)C2C(C)=O (stereo not drawn) [HB-19d] | 20 | 625 | 24,000 M^−1cm^−1 |
| COc1c2c3c4c(c(NC5(CO)CC5)c(=O)c5c(O)cc(OC)c(c6c(OC)cc(NC7(CO)CC7)c(c1=O)c63)c54)C=C(C)C2C(C)=O (stereo not drawn) [HB-35d] | 30 | 621 | 31,500 M^−1cm^−1 |
| COCCOCCC(=O)N1CCC(CNc2c(NCC3CCN(C(=O)CCOCCOC)CC3)c3c(=O)cc(OC)c4c5c(OC)cc(=O)c6c(O)c(OC)c7c(c(c2C=C(C)C7C(C)=O)c34)c65)CC1 (stereo not drawn) [HB-31a-PEG1] | 32 | 622 | 32,000 M^−1cm^−1 |
| COc1c(NC2CCC(C(=O)O)CC2)c2c(=O)cc(OC)c3c4c(OC)cc(=O)c5c(O)c(NC6CCC(C(=O)O)CC6)c6c(c(c1C(C(C)=O)C(C)=C6)c23)c54 (stereo not drawn) [HB-14b] | 24 | 623 | 27,000 M^−1cm^−1 |
| COCCOCCC(=O)N1CCC(CNc2c(NCC3CCN(C(=O)CCOCCOC)CC3)c3c(=O)c(Br)c(OC)c4c5c(OC)cc(=O)c6c(O)c(OC)c7c(c(c2C=C(C)C7C(C)=O)c34)c65)CC1 (stereo not drawn) [HB-31a-Br-PEG1] | 33 | 624 | 32,000 M^−1cm^−1 |
| COc1c(O)c2c(=O)cc(OC)c3c4c(OC)cc(=O)c5c(NCCOCCO)c(NCCOCCO)c6c(c(c1C(C(C)=O)C(C)=C6)c23)c54 (stereo not drawn) [HB-1a] | 35 | 630 | 30,000 M^−1cm^−1 |
| COc1c(O)c2c(=O)cc(OC)c3c4c(OC)cc(=O)c5c(NC6CCC(C(=O)O)CC6)c(NC6CCC(C(=O)O)CC6)c6c(c(c1C(C(C)=O)C(C)=C6)c23)c54 (stereo not drawn) [HB-14a] | 25 | 625 | 27,000 M^−1cm^−1 |
| COc1c2c3c4c(c(NCCOCCO)c(=O)c5c(O)cc(OC)c(c6c(OC)cc(NCCOCCO)c(c1=O)c63)c54)C=C(C)C2C(C)=O (stereo not drawn) [HB-1d] | 35 | 622 | 30,000 M^−1cm^−1 |
| COCCOCCOCCOCCOCCOCCOCCOCCOCCOCCOCCOCCOC(=O)C1CCC(Nc2c3c4c5c(c(OC)c(=O)c6c(O)cc(OC)c(c7c(OC)cc(NC8CCC(C(=O)OCCOCCOCCOCCOCCOCCOCCOCCOCCOCCOCCOCCOC)CC8)c(c2=O)c74)c65)C(C(C)=O)C(C)=C3)CC1 (stereo not drawn) [HB-14c-PEG12] | 38 | 628 | 33,500 M^−1cm^−1 |
| COCCOCCOCCOCCOCCOCCOCCOCCOCCNC(=O)C1CCC(CNc2c3c4c5c(c(OC)c(=O)c6c(O)cc(OC)c(c7c(OC)cc(NCC8CCC(C(=O)NCCOCCOCCOCCOCCOCCOCCOCCOCCOC)CC8)c(c2=O)c74)c65)C(C(C)=O)C(C)=C3)CC1 (stereo not drawn) [HB-13c-NH-PEG8] | 39 | 630 | 33,500 M^−1cm^−1 |

— patent publication US11439707B2, “Hypocrellin derivative substituted both in a peri-position and in 2-position by amino, preparation method, and application thereof” (priority 2017, dated 2022)
